The numbers were not newly measured in US20080139609A1, “GRANISETRON COMPOSITIONS” (priority 2006, published 2008), which cites them from elsewhere.

The conditions of data set [1]: in water and in normal saline at 20° C.
Data set [2] relates to other serotonin receptors. Conditions: selective 5-HT3 receptor antagonist.

Take `CN1C2CCCC1CC(NC(=O)c1nn(C)c3ccccc13)C2.Cl` (stereo not drawn) [Granisetron hydrochloride, endo-N-(9-methyl-9-azabicyclo[3.3.1]non-3-yl)-1-methyl-1H-indazole-3-carboxamide hydrochloride]: in data set [1], the Solubility result is on record as “readily soluble”.

On to `CN1C2CCCC1CC(NC(=O)c1nn(C)c3ccccc13)C2` (centres unmarked) [Granisetron], for which the “Affinity for other serotonin receptors” value in data set [2] is on record as “little or no affinity”.
